Laboratory results reported in patent US20260216198A1, “GPR35 MODULATORS” (ThirtyFiveBio Limited, priority 2023, published 2026).

target: T1, GPR35 (Homo sapiens, UniProt Q9HC97); assay: cellular GPR35 phospho-ERK HTRF assay (inhibition of lodoxamide-induced phospho-ERK signal); format: cell-based; conditions: GPR35-CHO-K1-mt aequorin-Gα16 cell line; agonist lodoxamide at EC80; read-out: Activity Group (IC50, inhibition of GPR35 agonist-induced phospho-ERK signal)
T1 construct: expressed in transfected cells; host or cells: CHO-K1 cells co-expressing mitochondrial aequorin and Gα16
T1 sequence (Q9HC97 whole entry): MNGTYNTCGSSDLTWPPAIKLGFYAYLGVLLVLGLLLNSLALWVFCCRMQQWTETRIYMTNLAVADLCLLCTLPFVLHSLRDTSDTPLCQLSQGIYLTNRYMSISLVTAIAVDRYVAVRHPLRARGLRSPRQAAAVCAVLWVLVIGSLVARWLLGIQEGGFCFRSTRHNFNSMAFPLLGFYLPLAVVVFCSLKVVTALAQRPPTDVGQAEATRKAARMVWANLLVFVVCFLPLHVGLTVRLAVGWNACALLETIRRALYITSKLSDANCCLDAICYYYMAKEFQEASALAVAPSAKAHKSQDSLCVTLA
In short: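 GPR35-CHO-K1-mt aequorin-Gα16 cells were stimulated with lodoxamide at its EC80. After lysis, phospho-ERK1/2 (Thr202/Tyr204) was read by HTRF sandwich with Eu-cryptate/d2 antibodies at 665 nm. IC50 is the modulator concentration giving 50% inhibition of the window between agonist-plus-vehicle and no-agonist controls.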

IC50, 1 to 10 µM:
COc1ccc(S(=O)(=O)Cc2ccc(NC(=O)c3cccc(-c4cnc(C)c(C(=O)O)c4)c3)cc2)cc1 [Example 99, 5-[3-[[4-[(4-Methoxyphenyl)sulfonylmethyl]phenyl]carbamoyl]phenyl]-2-methyl-pyridine-3-carboxylic acid]
COc1cccc(S(=O)(=O)Cc2ccc(NC(=O)c3cccc(-c4cnc(C)c(C(=O)O)c4)c3)cc2)c1 [Example 100, 5-[3-[[4-[(3-Methoxyphenyl)sulfonylmethyl]phenyl]carbamoyl]phenyl]-2-methyl-pyridine-3-carboxylic acid]
Cc1ccc(S(=O)(=O)Cc2ccc(NC(=O)c3cccc(-c4cnc(C)c(C(=O)O)c4)c3)cc2)cn1 [Example 101, 2-Methyl-5-[3-[[4-[(6-methyl-3-pyridyl)sulfonylmethyl]phenyl]carbamoyl]phenyl]pyridine-3-carboxylic acid]
